# According to patent US20240156140A1, “AMIDE COMPOUNDS AND THEIR USE AS FLAVOR MODIFIERS” (Firmenich Incorporated, priority 2021, published 2024):
# Biological target: T1, T1R umami taste receptor (Homo sapiens, UniProt Q7RTX0+Q7RTX1)
# T1 sequence (Q7RTX1 21-841): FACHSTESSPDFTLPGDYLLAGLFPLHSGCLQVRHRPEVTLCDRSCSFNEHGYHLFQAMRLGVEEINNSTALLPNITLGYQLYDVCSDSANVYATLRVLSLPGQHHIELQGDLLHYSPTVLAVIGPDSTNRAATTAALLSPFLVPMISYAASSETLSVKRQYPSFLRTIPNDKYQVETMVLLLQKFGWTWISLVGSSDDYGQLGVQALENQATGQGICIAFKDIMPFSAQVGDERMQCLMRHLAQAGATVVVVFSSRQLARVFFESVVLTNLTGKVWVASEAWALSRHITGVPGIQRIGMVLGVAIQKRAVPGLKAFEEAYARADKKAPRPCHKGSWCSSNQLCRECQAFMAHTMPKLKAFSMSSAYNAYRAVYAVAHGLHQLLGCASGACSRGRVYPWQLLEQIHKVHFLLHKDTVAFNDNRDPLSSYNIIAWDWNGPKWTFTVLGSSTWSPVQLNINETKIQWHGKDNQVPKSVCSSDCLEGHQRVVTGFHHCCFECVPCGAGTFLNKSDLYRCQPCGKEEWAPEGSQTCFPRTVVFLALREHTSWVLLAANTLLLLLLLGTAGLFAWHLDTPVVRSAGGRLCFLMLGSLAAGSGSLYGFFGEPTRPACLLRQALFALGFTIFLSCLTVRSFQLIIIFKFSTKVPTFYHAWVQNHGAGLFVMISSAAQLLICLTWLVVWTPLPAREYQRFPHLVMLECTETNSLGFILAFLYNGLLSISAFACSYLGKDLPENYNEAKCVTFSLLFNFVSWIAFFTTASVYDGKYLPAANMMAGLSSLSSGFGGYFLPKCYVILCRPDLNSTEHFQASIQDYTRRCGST
# T1 sequence (Q7RTX0 21-852): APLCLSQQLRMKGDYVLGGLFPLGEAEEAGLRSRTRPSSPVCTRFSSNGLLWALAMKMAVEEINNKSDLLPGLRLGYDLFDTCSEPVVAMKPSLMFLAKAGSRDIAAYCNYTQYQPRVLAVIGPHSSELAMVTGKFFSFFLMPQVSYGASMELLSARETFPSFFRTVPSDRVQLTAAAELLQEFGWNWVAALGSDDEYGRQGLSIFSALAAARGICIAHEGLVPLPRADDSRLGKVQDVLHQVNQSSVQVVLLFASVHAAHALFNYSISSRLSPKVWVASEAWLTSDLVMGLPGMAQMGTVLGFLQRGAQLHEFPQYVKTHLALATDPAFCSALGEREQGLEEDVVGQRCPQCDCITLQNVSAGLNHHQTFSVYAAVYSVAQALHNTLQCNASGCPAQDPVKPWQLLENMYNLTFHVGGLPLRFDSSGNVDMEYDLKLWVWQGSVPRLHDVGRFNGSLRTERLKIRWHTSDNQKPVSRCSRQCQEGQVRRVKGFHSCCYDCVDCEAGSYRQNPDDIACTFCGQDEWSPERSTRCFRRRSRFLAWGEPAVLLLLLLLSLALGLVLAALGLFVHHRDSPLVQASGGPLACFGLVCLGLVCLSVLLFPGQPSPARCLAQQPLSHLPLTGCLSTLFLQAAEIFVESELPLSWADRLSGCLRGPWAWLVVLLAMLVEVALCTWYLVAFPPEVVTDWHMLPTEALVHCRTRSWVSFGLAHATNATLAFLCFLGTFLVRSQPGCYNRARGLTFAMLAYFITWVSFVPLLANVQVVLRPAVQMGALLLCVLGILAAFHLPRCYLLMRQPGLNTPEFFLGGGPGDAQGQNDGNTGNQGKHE
# Experiment: in vitro cell-based assay, enhancement of MSG binding
# Conditions: cells that express the T1R umami taste receptor
# Method: Each of the compounds set forth in Table 2 were synthesized according to one of the general procedures set forth above in Example 1 or 2. Thereafter, the compounds were tested in an in vitro cell-based assay having cells that express the T1R umami taste receptor. Dose-binding curves were recorded and the EC50 was determined for enhancement of MSG binding. Table 2 sets forth the calculated EC50 values for certain tested compounds.
row,SMILES,EC50
1,O=C(NCCC[C@H](NC(=O)c1ccccc1)C(=O)O)c1ccccc1 [Compound 101],> 50000 nM
2,COC(=O)[C@H](CCCNC(=O)c1ccccc1)NC(=O)c1ccccc1 [Compound 102],30000 nM
3,CCOC(=O)[C@H](CCCNC(=O)c1ccccc1)NC(=O)c1ccccc1 [Compound 103],2000 nM
4,CCOC(=O)[C@H](CCCNC(=O)c1ccc(C)c(C)c1)NC(=O)c1ccc(C)c(C)c1 [Compound 104],14000 nM
5,CCOC(=O)[C@H](CCCNC(=O)c1ccc2c(c1)OCO2)NC(=O)c1ccc2c(c1)OCO2 [Compound 105],35000 nM
6,C/C=C(\C)C(=O)NCCC[C@H](NC(=O)c1ccccc1)C(=O)OC [Compound 106],3500 nM
7,C/C=C(\C)C(=O)NCCC[C@H](NC(=O)c1ccccc1)C(=O)OCC [Compound 107],8000 nM
8,C/C=C(\C)C(=O)NCCC[C@H](NC(=O)c1ccc(C)cc1)C(=O)OC [Compound 108],2500 nM
9,C/C=C(\C)C(=O)NCCC[C@H](NC(=O)c1ccc(C)cc1)C(=O)OCC [Compound 109],1500 nM
10,C/C=C(\C)C(=O)NCCC[C@H](NC(=O)c1ccc(OC)cc1)C(=O)OC [Compound 110],700 nM
11,C/C=C(\C)C(=O)NCCC[C@H](NC(=O)c1ccc(OC)cc1)C(=O)OCC [Compound 111],400 nM
12,C/C=C(\C)C(=O)NCCC[C@H](NC(=O)c1ccc(C)c(C)c1)C(=O)OC [Compound 112],< 100 nM
13,C/C=C(\C)C(=O)NCCC[C@H](NC(=O)c1ccc(C)c(C)c1)C(=O)OCC [Compound 113],500 nM
14,C/C=C(\C)C(=O)NCCC[C@H](NC(=O)c1cc(C)c(C)c(C)c1)C(=O)OC [Compound 114],400 nM
15,C/C=C(\C)C(=O)NCCC[C@H](NC(=O)c1cc(C)c(C)c(C)c1)C(=O)OCC [Compound 115],40 nM
16,C/C=C(\C)C(=O)NCCC[C@H](NC(=O)c1ccc2c(c1)OCO2)C(=O)OCC [Compound 121],500 nM
17,C/C=C(\C)C(=O)NCCC[C@H](NC(=O)/C=C/c1ccccc1)C(=O)OC [Compound 122],200 nM
18,C/C=C(\C)C(=O)NCCC[C@H](NC(=O)/C=C/c1ccccc1)C(=O)OCC [Compound 123],600 nM
19,C/C=C(\C)C(=O)NCCC[C@H](NC(=O)/C=C/c1ccccc1OC)C(=O)OC [Compound 124],500 nM
20,C/C=C(\C)C(=O)NCCC[C@H](NC(=O)/C=C/c1ccc(OC)cc1)C(=O)OC [Compound 128],640 nM
21,C/C=C(\C)C(=O)NCCC[C@H](NC(=O)/C=C/c1ccc(OC)cc1)C(=O)OCC [Compound 129],60 nM
22,C/C=C(\C)C(=O)NCCC[C@H](NC(=O)/C=C/c1ccc(OC)cc1OC)C(=O)OC [Compound 132],100 nM
23,C/C=C(\C)C(=O)NCCC[C@H](NC(=O)/C=C/c1ccc(OC)cc1OC)C(=O)OCC [Compound 133],400 nM
